Assays:
Assay in all cases: relative viability (nuclei count vs DMSO), 5 days (fraction); higher = more cells survive
BEN = test system: BEN
How it was run: (§1)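 The day after seeding in 1536-well plates, lung cancer cell lines were treated by pin tool with a single drug, or with a fixed anchor-drug dose together with five library-drug doses (not always all listed) in √10 steps. After 5 days, a combined fix-and-stain solution (final 0.05% Triton X-100, 1% formaldehyde, 1 ug/ml Hoechst) was added. Nuclei counted on 4× images gave relative viability as treated counts over vehicle counts, reported as the median of duplicate plates.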

COR-L 105 = test system: COR-L 105
How it was run: as §1

ChaGo-K-1 = test system: ChaGo-K-1
How it was run: as §1

EKVX = test system: EKVX
How it was run: as §1

EMC-BAC-2 = test system: EMC-BAC-2
How it was run: as §1

EPLC-272H = test system: EPLC-272H
How it was run: as §1

HCC-78 = test system: HCC-78
How it was run: as §1

HCC-827 = test system: HCC-827
How it was run: as §1

LCLC-97TM1 = test system: LCLC-97TM1
How it was run: as §1

LK-2 = test system: LK-2
How it was run: as §1

LOU-NH91 = test system: LOU-NH91
How it was run: as §1

LU99A = test system: LU99A
How it was run: as §1

NCI-H1650 = test system: NCI-H1650
How it was run: as §1

NCI-H1734 = test system: NCI-H1734
How it was run: as §1

NCI-H1944 = test system: NCI-H1944
How it was run: as §1

NCI-H2087 = test system: NCI-H2087
How it was run: as §1

NCI-H2126 = test system: NCI-H2126
How it was run: as §1

NCI-H358 = test system: NCI-H358
How it was run: as §1

NCI-H727 = test system: NCI-H727
How it was run: as §1

RERF-LC-KJ = test system: RERF-LC-KJ
How it was run: as §1

SK-MES-1 = test system: SK-MES-1
How it was run: as §1

SW 1573 = test system: SW 1573
How it was run: as §1

Cc1cnc(-c2cnc(NCCNc3ccc(C#N)cn3)nc2-c2ccc(Cl)cc2Cl)[nH]1 + COc1cc2c(Oc3ccc(NC(=O)C4(C(=O)Nc5ccc(F)cc5)CC4)cc3F)ccnc2cc1OCCCN1CCOCC1 [Foretinib] (partner 0.25 µM)
relative viability (BEN; first compound 0.08 µM): 0.857 | relative viability (BEN; first compound 0.253 µM): 0.68 | relative viability (BEN; first compound 0.8 µM): 0.746 | relative viability (BEN; first compound 2.53 µM): 0.69 | relative viability (COR-L 105; first compound 0.08 µM): 0.906 | relative viability (COR-L 105; first compound 0.253 µM): 1.03 | relative viability (COR-L 105; first compound 0.8 µM): 0.943 | relative viability (COR-L 105; first compound 2.53 µM): 0.868 | relative viability (ChaGo-K-1; first compound 0.08 µM): 0.941 | relative viability (ChaGo-K-1; first compound 0.253 µM): 0.84 | relative viability (ChaGo-K-1; first compound 0.8 µM): 0.945 | relative viability (ChaGo-K-1; first compound 2.53 µM): 0.921 | relative viability (EKVX; first compound 0.08 µM): 0.588 | relative viability (EKVX; first compound 0.253 µM): 0.555 | relative viability (EKVX; first compound 0.8 µM): 0.626 | relative viability (EKVX; first compound 2.53 µM): 0.727 | relative viability (EMC-BAC-2; first compound 0.08 µM): 1.1 | relative viability (EMC-BAC-2; first compound 0.253 µM): 0.964 | relative viability (EMC-BAC-2; first compound 0.8 µM): 1.02 | relative viability (EMC-BAC-2; first compound 2.53 µM): 0.939 | relative viability (EPLC-272H; first compound 0.08 µM): 0.737 | relative viability (EPLC-272H; first compound 0.253 µM): 0.617 | relative viability (EPLC-272H; first compound 0.8 µM): 0.692 | relative viability (EPLC-272H; first compound 2.53 µM): 0.747 | relative viability (HCC-78; first compound 0.08 µM): 0.471 | relative viability (HCC-78; first compound 0.253 µM): 0.488 | relative viability (HCC-78; first compound 0.8 µM): 0.525 | relative viability (HCC-78; first compound 2.53 µM): 0.568 | relative viability (HCC-827; first compound 0.08 µM): 1.04 | relative viability (HCC-827; first compound 0.8 µM): 0.983 | relative viability (HCC-827; first compound 2.53 µM): 0.976 | relative viability (LCLC-97TM1; first compound 0.08 µM): 0.917 | relative viability (LCLC-97TM1; first compound 0.8 µM): 0.878 | relative viability (LCLC-97TM1; first compound 2.53 µM): 0.86 | relative viability (LK-2; first compound 0.08 µM): 1.6 | relative viability (LK-2; first compound 0.253 µM): 0.82 | relative viability (LK-2; first compound 0.8 µM): 0.942 | relative viability (LK-2; first compound 2.53 µM): 1.21 | relative viability (LOU-NH91; first compound 0.08 µM): 0.975 | relative viability (LOU-NH91; first compound 0.253 µM): 0.901 | relative viability (LOU-NH91; first compound 0.8 µM): 0.96 | relative viability (LOU-NH91; first compound 2.53 µM): 0.942 | relative viability (LU99A; first compound 0.08 µM): 0.908 | relative viability (LU99A; first compound 0.253 µM): 0.701 | relative viability (LU99A; first compound 0.8 µM): 0.83 | relative viability (LU99A; first compound 2.53 µM): 0.765 | relative viability (NCI-H1650; first compound 0.08 µM): 1.37 | relative viability (NCI-H1650; first compound 0.253 µM): 1.22 | relative viability (NCI-H1650; first compound 0.8 µM): 1.25 | relative viability (NCI-H1650; first compound 2.53 µM): 1.01 | relative viability (NCI-H1734; first compound 0.08 µM): 0.926 | relative viability (NCI-H1734; first compound 0.253 µM): 0.762 | relative viability (NCI-H1734; first compound 0.8 µM): 0.834 | relative viability (NCI-H1734; first compound 2.53 µM): 0.83 | relative viability (NCI-H1944; first compound 0.08 µM): 0.885 | relative viability (NCI-H1944; first compound 0.8 µM): 0.902 | relative viability (NCI-H1944; first compound 2.53 µM): 0.91 | relative viability (NCI-H2087; first compound 0.08 µM): 1.31 | relative viability (NCI-H2087; first compound 0.253 µM): 1.06 | relative viability (NCI-H2087; first compound 0.8 µM): 1.14 | relative viability (NCI-H2087; first compound 2.53 µM): 1.14 | relative viability (NCI-H2126; first compound 0.08 µM): 1.33 | relative viability (NCI-H2126; first compound 0.253 µM): 1.22 | relative viability (NCI-H2126; first compound 0.8 µM): 1 | relative viability (NCI-H2126; first compound 2.53 µM): 1.08 | relative viability (NCI-H358; first compound 0.08 µM): 0.735 | relative viability (NCI-H358; first compound 0.253 µM): 0.597 | relative viability (NCI-H358; first compound 0.8 µM): 0.404 | relative viability (NCI-H358; first compound 2.53 µM): 0.509 | relative viability (NCI-H727; first compound 0.08 µM): 0.943 | relative viability (NCI-H727; first compound 0.253 µM): 0.918 | relative viability (NCI-H727; first compound 0.8 µM): 0.732 | relative viability (NCI-H727; first compound 2.53 µM): 0.898 | relative viability (RERF-LC-KJ; first compound 0.08 µM): 0.906 | relative viability (RERF-LC-KJ; first compound 0.253 µM): 0.796 | relative viability (RERF-LC-KJ; first compound 0.8 µM): 0.826 | relative viability (RERF-LC-KJ; first compound 2.53 µM): 0.832 | relative viability (SK-MES-1; first compound 0.08 µM): 1.09 | relative viability (SK-MES-1; first compound 0.253 µM): 0.909 | relative viability (SK-MES-1; first compound 0.8 µM): 0.942 | relative viability (SK-MES-1; first compound 2.53 µM): 1.02 | relative viability (SW 1573; first compound 0.08 µM): 0.929 | relative viability (SW 1573; first compound 0.253 µM): 0.87 | relative viability (SW 1573; first compound 0.8 µM): 0.907 | relative viability (SW 1573; first compound 2.53 µM): 0.769

Reference: the supplement of paper PMC10307832
